Data on ten molecules can be found in patent publication US6583299B1, “α-amino-β-sulfonyl hydroxamic acid compounds” (priority 1999, dated 2003).

The subject of series [1] is human moncytic line U-937. Nature of the series: Tumor necrosis factor assay: PMA-stimulated TNF release, TNFα ELISA. Particulars: U-937 cells; for inhibition at 10 µM: compound at 10 μM, read-out: Per Cent Inhibition of TNF? Release [average]. It is filed as cell-based. Here is the method:
The cells used in the assay are the human moncytic line U-937 (ATCC CRL-1593). The cells are grown RPMI w/10% FCS and PSG supplement (R-10) and are not permitted to overgrow. The assay is carried out as follows:
1. Count, then harvest cells by centrifugation. Resuspend the pellet in R-10 supplement to a concentration of 1.540×10^6 cells/mL.
2. Add test compound in 65 μL R-10 to the appropriate wells of a 96-well flat bottom tissue culture plate. The initial dilution from a DMSO stock (100 mM compound) provides a 400 μM solution, from which five additional three-fold serial dilutions are made.
3. The counted, washed and resuspended cells (200,000 cells/well) in 130 μL are added to the wells.
4. Incubation is for 45 minutes to one hour at 37° C. in 5% CO2 in a water saturated container.
5. R-10 (65 μL)containing 160 ng/mL PMA (Sigma) is added to each well. 6. The test system is incubated at 37° C. in 5% CO2 overnight (18-20 hours) under 100% humidity.
7. Supernatant, 150 μL, is carefully removed from each well for use in the ELISA assay.
Coat Immulon® 2 plates with 0.1 mL/well of 1 ug/mL Genzyme mAb in 0.1 M NaHCO3 pH 8.0 buffer overnight (about 18-20 hours) at 4° C., wrapped tightly in Saran® wrap.
Wash wells thoroughly 4× with wash buffer and completely remove all wash buffer. Add 0.1 mL/well of either samples or rhTNFα standards. Dilute samples if necessary in appropriate diluent (e.g. tissue culture medium). Dilute standard in same diluent. Standards and samples should be in triplicates.
Wash plates as above. Add 0.1 mL/well of 1:200 dilution of Genzyme rabbit anti-hTNFα.
Repeat wash. Add 0.1 mL/well of 1 μg/mL Jackson goat anti-rabbit IgG (H+L)-peroxidase.
Repeat wash. Add 0.1 mL/well of peroxide-ABTS solution.
In general terms: In an ELISA, binding on a coated surface is turned into a signal by an enzyme label.

Another series has as its target T1, MMP-13 (Homo sapiens, UniProt P45452).
T1 construct: made in house; host or cells: baculovirus / insect cells
As to the kind of experiment: In vitro metalloprotease inhibition, fluorogenic MCA peptide substrate. It counts as biochemical. As to conditions: recombinant human enzyme, APMA-activated, room temperature, pH 7.5; read-out: MMP-13 IC50.

Another series has as its target T2, MMP-1 (Homo sapiens, UniProt P03956).
T2 construct: host or cells: transfected HT-1080 cells
T2 sequence (P03956 100-469): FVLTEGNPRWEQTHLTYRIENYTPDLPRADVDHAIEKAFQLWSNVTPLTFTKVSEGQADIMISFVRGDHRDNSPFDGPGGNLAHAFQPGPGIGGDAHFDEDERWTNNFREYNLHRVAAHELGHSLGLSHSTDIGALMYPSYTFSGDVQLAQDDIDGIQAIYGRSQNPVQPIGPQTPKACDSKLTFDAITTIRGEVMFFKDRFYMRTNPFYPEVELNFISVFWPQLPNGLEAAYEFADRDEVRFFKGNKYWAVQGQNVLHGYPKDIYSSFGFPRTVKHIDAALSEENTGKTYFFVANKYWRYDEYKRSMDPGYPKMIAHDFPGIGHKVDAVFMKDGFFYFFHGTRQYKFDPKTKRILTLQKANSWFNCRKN
Described as above. It is filed as biochemical. As to conditions: recombinant human enzyme, APMA-activated, room temperature, pH 7.5.

The test system of series [2] is solid tumor cancers (colorectal, pancreatic, ovarian, prostate). Particulars: cited from earlier work.

Molecules are shown by their SMILES.

Usually IC50 stands for the concentration needed to halve the response being measured. The term inhibition denotes the drop in the measured response relative to a control, in per cent.

Experimental for MMP-13: Briefly, 4-aminophenylmercuric acetate (APMA) or trypsin-activated MMPs were incubated with various concentrations of the inhibitor compound at room temperature for 5 minutes.
The expressed enzyme was purified first over a heparin agarose column and then over a chelating zinc chloride column. The proenzyme was activated by APMA for use in the assay.
The enzyme substrate is a methoxycoumarin-containing polypeptide having the following sequence:
MCA-ProLeuGlyLeuDpaAlaArgNH2, wherein MCA is methoxycoumarin and Dpa is 3-(2,4-dinitrophenyl)-L-2,3-diaminopropionyl alanine.
The assayed inhibitor compound in DMSO/buffer solution was compared to an equal amount of DMSO/buffer with no inhibitor as control using Microfluor™ White Plates (Dynatech). The inhibitor or control solution was maintained in the plate for 10 minutes and the substrate was added to provide a final concentration of 4 μM.
Inhibition was measured as a reduction in fluorescent intensity as a function of inhibitor concentration, using a Perkin Elmer L550 plate reader. The IC50 values were calculated from those values.

For the molecule `COc1ccc(S(=O)(=O)CC(NC(=O)CCC(=O)O)C(=O)NO)cc1` (stereo not shown) [Example 8], the IC50 in series [1] was greater than 50000 nM; at MMP-13, 60 nM; on MMP-1, 600 nM.

For the molecule `CCCCC(=O)NC(CS(=O)(=O)c1ccc(OC)cc1)C(=O)NO` (stereo not shown) [Example 4, N-Hydroxy-3-[(4-methoxyphenyl)sulfonyl]-2-[(butylcarbonyl)amino]propanamide], the IC50 was greater than 50000 nM in series [1], 3.5 nM on MMP-13 and 400 nM at MMP-1. In addition, in series [1], the inhibition at 10 µM is -3.8%.

Take `COc1ccc(S(=O)(=O)CC(N)C(=O)NO)cc1` (stereo not shown) [Example 22]: the results for the IC50 (in series [1]; on MMP-13; at MMP-1) were greater than 29000 nM, 15 nM and 250 nM, respectively.

As to `COc1ccc(S(=O)(=O)CC(NC(C)=O)C(=O)NO)cc1OC` (stereo not shown) [Example 23], the IC50 in series [1] is greater than 50000 nM; at MMP-13, 1500 nM; on MMP-1, greater than 10000 nM.

`CNC(=O)[C@@H](NC(=O)[C@H](CC(C)C)[C@H](O)C(=O)NO)C(C)(C)C` [marimastat]: in series [2] (clinical trials, Phase I/II), the “Most common drug-related toxicity” value was “musculoskeletal pain and stiffness”. Also, the “Effect on cancer-specific antigens used as surrogate markers for biological activity” value in series [2] (patients with advanced, rapidly progressive, treatment-refractory solid tumor cancers) is reported as “dose-related reduction in the rise of cancer-specific antigens”.

As to `COc1ccc(S(=O)(=O)CC(NC(=O)[C@@H](C)NC(=O)OCc2ccccc2)C(=O)NO)cc1` (stereo partly shown) [Example 25], the IC50 in series [1] was 14000 nM; on MMP-13, 1 nM; at MMP-1, 1 nM.

Turning to `CC(=O)NC(CS(=O)(=O)c1ccc(Br)cc1)C(=O)NO` (stereo not shown) [Example 5, N-Hydroxy-3-[(4-bromophenyl)sulfonyl]-2-[(methylcarbonyl)amino]propanamide], the results for the IC50 (in series [1]; on MMP-13; on MMP-1) were greater than 50000 nM, 200 nM and 100 nM, respectively. Moreover, in series [1], the inhibition at 10 µM is -10.8%.

For the molecule `COc1ccc(S(=O)(=O)CC(NC(C)=O)C(=O)NO)cc1` (stereo not shown) [Example 24], the IC50 in series [1] is greater than 50000 nM; on MMP-13, 650 nM; on MMP-1, 5200 nM.

On to `COc1ccc(S(=O)(=O)CC(NC(=O)CCC(=O)OCc2ccccc2)C(=O)NO)cc1` (stereo not shown) [Example 7], for which the IC50 is greater than 50000 nM in series [1], 2.5 nM at MMP-13 and 200 nM at MMP-1.

As for `COc1ccc(S(=O)(=O)CC(NC(=O)c2ccccc2)C(=O)NO)cc1` (stereo not shown) [Example 3, N-Hydroxy-3-[(4-methoxyphenyl)sulfonyl]-2-[(phenylcarbonyl)amino]propanamide], the inhibition at 10 µM in series [1] was found to be 3.72%. Moreover, the IC50 on MMP-13 was 25 nM; at MMP-1, 2000 nM.
